Key:
[1] = test system: antibodies in sera from SARS patients (sera 1a, 1b, 2, 6, 37, 62, London, SARS-yellow, SARS-green); format: binding, human; set-up: Binding of serum 6 to linear peptides of protein X1 of SARS-CoV Urbani / Binding of serum 37 to linear peptides of protein X1 of SARS-CoV Urbani / Binding of serum 6 to looped/cyclic peptide (PEPSCAN-ELISA) / Binding of serum 37 to looped/cyclic peptide (PEPSCAN-ELISA) / Binding of serum 37 to looped/cyclic peptides of protein X1 of SARS-CoV Urbani / Binding of serum 6 to linear peptides of protein X2 / Binding of serum 37 to linear peptides of protein X2 / Binding of serum 37 to looped/cyclic peptides of protein X2 of SARS-CoV Urbani / Binding of serum 6 to linear peptides of protein M of SARS-CoV Urbani / Binding of serum 37 to linear peptides of protein M of SARS-CoV Urbani / Binding of serum 6 to looped/cyclic peptides of protein M of SARS-CoV Urbani / Binding of serum 37 to looped/cyclic peptides of protein M of SARS-CoV Urbani / Binding of serum 6 to linear peptides of protein X3 of SARS-CoV Urbani / Binding of serum 37 to linear peptides of protein X3 of SARS-CoV Urbani / Binding of serum 37 to looped/cyclic peptides of protein X3 of SARS-CoV Urbani / Binding of serum 6 to linear peptides of protein X4 of SARS-CoV Urbani / Binding of serum 37 to linear peptides of protein X4 of SARS-CoV Urbani / Binding of serum 37 to looped/cyclic peptides of protein X4 of SARS-CoV Urbani / Binding of serum 6 to linear peptides of protein X5 of SARS-CoV Urbani / Binding of serum 37 to linear peptides of protein X5 of SARS-CoV Urbani / Binding of serum 37 to looped/cyclic peptides of protein X5 of SARS-CoV Urbani / Binding of serum 6 to linear peptides of protein N of SARS-CoV Urbani / Binding of serum 37 to linear peptides of protein N of SARS-CoV Urbani / Binding of serum 6 to linear peptide (PEPSCAN-ELISA) / Binding of serum 1a to looped/cyclic peptides of protein N of SARS-CoV Urbani / Binding of serum 1b to looped/cyclic peptides of protein N of SARS-CoV Urbani / Binding of serum 2 to looped/cyclic peptides of protein N of SARS-CoV Urbani / Binding of serum 6 to looped/cyclic peptides of protein N of SARS-CoV Urbani / Binding of serum 37 to looped/cyclic peptides of protein N of SARS-CoV Urbani / Binding of serum 62 to looped/cyclic peptides of protein N of SARS-CoV Urbani / Binding of serum London to looped/cyclic peptides of protein N of SARS-CoV Urbani / Binding of serum SARS-green to looped/cyclic peptides of protein N of SARS-CoV Urbani: unit not given here
[2] = test system: control sera (pooled serum of ten healthy LUMC hospital workers; commercial negative donor pooled serum from the Dutch bloodbank); format: binding, human
[3] = test system: rabbit serum obtained by immunizing a rabbit with the SARS-CoV strain Frankfurt 1; format: binding; set-up: Binding of a rabbit serum to linear peptides / Binding of a rabbit serum to looped peptides / Rabbit serum linear peptides / Rabbit serum looped peptides / Binding of a rabbit serum to linear peptides of protein N of SARS-CoV Urbani (Rabbit serum linear peptides) / Binding of a rabbit serum to looped/cyclic peptides of protein N of SARS-CoV Urbani (Rabbit serum looped peptides): unit not given here

LLACLCKHKKVSTNL
Binding of serum 1a to looped/cyclic peptides of protein X2 of SARS-CoV Urbani [1]: 0.4 | Binding of serum 1b to looped/cyclic peptides of protein X2 of SARS-CoV Urbani [1]: 0.4 | Binding of serum 2 to looped/cyclic peptides of protein X2 of SARS-CoV Urbani [1]: 0.4 | Binding of serum 6 to looped/cyclic peptides of protein X2 of SARS-CoV Urbani [1]: 0.4 | Binding of serum 37 to looped/cyclic peptides of protein X2 of SARS-CoV Urbani [1]: 0.5 | Binding of serum 62 to looped/cyclic peptides of protein X2 of SARS-CoV Urbani [1]: 0.7 | Binding of serum London to looped/cyclic peptides of protein X2 of SARS-CoV Urbani [1]: 0.2 | Binding of serum SARS-green to looped/cyclic peptides of protein X2 of SARS-CoV Urbani [1]: 0.3 | Binding of serum SARS-yellow to looped/cyclic peptides of protein X2 of SARS-CoV Urbani [1]: 0.4 | Recognition of the peptide by sera of SARS-CoV infected individuals, and form (linear, looped/cyclic) in which it is recognized [1]: recognized in linear form | Binding of Control Serum Blood-Bank to Looped peptides [2]: 0.5 | Binding of Control serum Blood-bank to linear peptides [2]: 0.8 | Binding of Control serum LUMC to linear peptides [2]: 0.8 | Binding of Control serum LUMC to looped peptides [2]: 0.7 | Binding of a rabbit serum to linear peptides [3]: 0.4 | Binding of a rabbit serum to looped peptides [3]: 0.4

LLKTHRMCKYTQSTA
Binding of serum 1a to linear peptides of protein X2 [1]: 0.8 | Binding of serum 1a to looped/cyclic peptides of protein X2 of SARS-CoV Urbani [1]: 0.4 | Binding of serum 1b to linear peptides of protein X2 [1]: 0.5 | Binding of serum 1b to looped/cyclic peptides of protein X2 of SARS-CoV Urbani [1]: 0.3 | Binding of serum 2 to linear peptides of protein X2 [1]: 0.6 | Binding of serum 2 to looped/cyclic peptides of protein X2 of SARS-CoV Urbani [1]: 0.2 | Binding of serum 6 to linear peptides of protein X2 [1]: 0.6 | Binding of serum 6 to looped/cyclic peptides of protein X2 of SARS-CoV Urbani [1]: 0.3 | Binding of serum 37 to linear peptides of protein X2 [1]: 0.7 | Binding of serum 37 to looped/cyclic peptides of protein X2 of SARS-CoV Urbani [1]: 0.2 | Binding of serum 62 to linear peptides of protein X2 [1]: 0.7 | Binding of serum 62 to looped/cyclic peptides of protein X2 of SARS-CoV Urbani [1]: 0.4 | Binding of serum London to linear peptides of protein X2 [1]: 0.5 | Binding of serum London to looped/cyclic peptides of protein X2 of SARS-CoV Urbani [1]: 0.2 | Binding of serum SARS-green to linear peptides of protein X2 [1]: 0.6 | Binding of serum SARS-green to looped/cyclic peptides of protein X2 of SARS-CoV Urbani [1]: 0.2 | Binding of serum SARS-yellow to linear peptides of protein X2 [1]: 0.8 | Binding of serum SARS-yellow to looped/cyclic peptides of protein X2 of SARS-CoV Urbani [1]: 0.2 | Binding of Control Serum Blood-Bank to Looped peptides [2]: 0.4 | Binding of Control serum Blood-bank to linear peptides [2]: 0.7 | Binding of Control serum LUMC to linear peptides [2]: 0.6 | Binding of Control serum LUMC to looped peptides [2]: 0.4 | Binding of a rabbit serum to linear peptides [3]: 0.5 | Binding of a rabbit serum to looped peptides [3]: 0.3

LLKVTAFQHQNSKKT
Binding of serum 1a to linear peptides of protein X2 [1]: 0.2 | Binding of serum 1a to looped/cyclic peptides of protein X2 of SARS-CoV Urbani [1]: 0.4 | Binding of serum 1b to linear peptides of protein X2 [1]: 0.0 | Binding of serum 1b to looped/cyclic peptides of protein X2 of SARS-CoV Urbani [1]: 0.3 | Binding of serum 2 to linear peptides of protein X2 [1]: 0.1 | Binding of serum 2 to looped/cyclic peptides of protein X2 of SARS-CoV Urbani [1]: 0.2 | Binding of serum 6 to linear peptides of protein X2 [1]: 0.2 | Binding of serum 6 to looped/cyclic peptides of protein X2 of SARS-CoV Urbani [1]: 0.2 | Binding of serum 37 to linear peptides of protein X2 [1]: 0.5 | Binding of serum 37 to looped/cyclic peptides of protein X2 of SARS-CoV Urbani [1]: 0.3 | Binding of serum 62 to linear peptides of protein X2 [1]: 0.1 | Binding of serum 62 to looped/cyclic peptides of protein X2 of SARS-CoV Urbani [1]: 0.4 | Binding of serum London to linear peptides of protein X2 [1]: 0.2 | Binding of serum London to looped/cyclic peptides of protein X2 of SARS-CoV Urbani [1]: 0.2 | Binding of serum SARS-green to linear peptides of protein X2 [1]: 0.1 | Binding of serum SARS-green to looped/cyclic peptides of protein X2 of SARS-CoV Urbani [1]: 0.3 | Binding of serum SARS-yellow to linear peptides of protein X2 [1]: 0.1 | Binding of serum SARS-yellow to looped/cyclic peptides of protein X2 of SARS-CoV Urbani [1]: 0.3 | Binding of Control Serum Blood-Bank to Looped peptides [2]: 0.4 | Binding of Control serum Blood-bank to linear peptides [2]: 0.3 | Binding of Control serum LUMC to linear peptides [2]: 0.3 | Binding of Control serum LUMC to looped peptides [2]: 0.5 | Binding of a rabbit serum to linear peptides [3]: 0.6 | Binding of a rabbit serum to looped peptides [3]: 0.3
